Key:
spiral ganglion cells = experiment: Spiral ganglion cell survival by anti-neurofilament antibody staining and microscopic counting; assay type: cell-based, Sprague-Dawley rats; details: for impact on viability of SGC: concentrations between 10^-12 and 10^-6 mol/L; for viability (survival) of spiral ganglion cells at high concentration: concentration of 10^-5 mol/L (FIG. 3)
Description: Spiral ganglion cells were freshly isolated from Sprague-Dawley rats (p3-5). Viable cells were suspended in Dulbecco's Modified Eagle's Medium supplemented with 10% fetal calf serum and 50 ng/ml BDNF and were seeded onto laminin- and ornithin-coated cell culture plates at a density of 1.5×10^4 cells/well. After a cultivation time of 48 hours, cells were stained with anti-neurofilament antibody and counted under a microscope. All experiments were performed in quadruplicate and the experiment was repeated four times.
(§1) Discs (0.1 mm thick and 6 mm in diameter) of poly(L-lactide) (PLLA, Resomer L214, Boehringer Ingelheim Pharma GmbH & Co. KG, Ingelheim, Germany), poly(4-hydroxybutyrate) (P(4HB), Tepha, Inc., Lexington, Mass., USA) and silicone were placed at the bottom of standard 96-well tissue culture plates. Microtiter plates without material additions served as controls. Cells were seeded into each of the different cell culture wells and the assays were carried out as described above in Examples 1 and 2. For absorption measurements when using NIH-3T3 cells and neutral red test, the supernatant of all wells was transferred into new wells after permeabilization of the cells. Surviving spiral ganglion cells were stained directly on the polymer discs and counted.

NIH-3T3 fibroblasts = experiment: Neutral Red assay of NIH-3T3 fibroblast viability; assay type: cell-based; details: for impact on viability of NIH-3T3 cells: concentrations between 10^-12 and 10^-6 mol/L; for effect on NIH-3T3 cell viability: drug at concentrations between 10^-12 and 10^-4 mol/L, relative to control (no drug), 48 hours
Description: Cell survival and viability of NIH-3T3 fibroblasts were measured using a Neutral Red Assay. NIH-3T3 fibroblasts were seeded into 96-well cell culture plates at a density of 10^4 cells/well in Dulbecco's Modified Eagle's Medium supplemented with 10% fetal calf serum. After 48 hours, cells were stained using a Neutral Red Assay. Neutral red is taken up only by living cells.
After incubation for 3 hours and several washing steps, cells were permeabilized and the neutral red solubilized in the supernatant. The absorption measured at 570 nm is proportional to the number of living cells. Measurements were run in quintuplicate and results were averaged. The experiment was repeated at least four times.
as §1
The NIH-3T3 fibroblasts were cultured and assayed with Neutral Red according to Example 1, except that dexamethasone or sirolimus were added to the cell culture at concentrations between 10^−12 and 10^−4 mol/L. The percentage of viable NIH-3T3 cells was assayed relative to the control (no drug) and the results are shown in FIGS. 2 (dexamethasone) and 3 (sirolimus).

Row | SMILES | increase of spiral ganglion cell viability (spiral ganglion cells; concentrations between 10^-11 to 10^-7 mol/L (FIG. 2)) [%] | impact on viability of SGC (spiral ganglion cells) | effect on spiral ganglion cell viability (spiral ganglion cells; drug at concentrations between 10^-12 and 10^-4 mol/L, relative to control (no drug), 48 hours) | impact on viability of NIH-3T3 cells (NIH-3T3 fibroblasts) | effect on NIH-3T3 cell viability (NIH-3T3 fibroblasts) | viability (survival) of spiral ganglion cells at high concentration (spiral ganglion cells) | viability (survival) of spiral ganglion cells at high concentration (spiral ganglion cells; listed as Sirolimus)
1 | C[C@@H]1C[C@H]2[C@@H]3CCC4=CC(=O)C=C[C@]4(C)[C@@]3(F)[C@@H](O)C[C@]2(C)[C@@]1(O)C(=O)CO [dexamethasone] | ~20 | do not have an adverse impact | no toxic effects | do not have an adverse impact | no toxic effects | – | –
2 | CO[C@H]1C[C@@H]2CC[C@@H](C)[C@@](O)(O2)C(=O)C(=O)N2CCCC[C@H]2C(=O)O[C@H]([C@H](C)C[C@@H]2CC[C@@H](O)[C@H](OC)C2)CC(=O)[C@H](C)/C=C(\C)[C@@H](O)[C@@H](OC)C(=O)[C@H](C)C[C@H](C)/C=C/C=C/C=C/1C [sirolimus] | – | do not have an adverse impact | – | do not have an adverse impact | only a small decrease | reduced | substantially reduced
